Entries after “also recorded” stand apart in the source; their conditions may differ. Peptide text beside a SMILES is read from it. * marks the point of attachment. Cbz = O=C(OCc1ccccc1)*

These results are taken from US7700543B2, “Use NF-κB inhibition in combination therapy for cancer” (The University of North Carolina at Chapel Hill, priority 1997, dated 2010).

Assay [1] has as its system NF-κB. The experiment in a line: NF-κB activation by CPT-11 (data not shown). Format: cell-based.
Another assay deals with HT1080V cells. The experiment in a line: Cell viability experiments, enhancement of TNF-induced cell killing by proteasome inhibitor. The settings on record: dose-dependent, data not shown. Format: cell-based, human. From the text: The effect of a proteasome inhibitor on TNF-treated cells was investigated. Proteasome inhibitors of the peptide aldehyde category are potent inhibitors of NF-κB activation (Palombello et al., Cell 78:773 (1994); Chen et al., Genes Dev. 9:1586 (1995)). […] Cell viability experiments were used to monitor the effectiveness of MG132 in enhancing TNF-induced cell killing.

In assay [2] the test system is HT1080 fibrosarcoma cells. The experiment in a line: Cell survival by crystal violet assay in HT1080V and HT1080I cells. The format is cell-based, human. The protocol:
HT1080V (open squares) and HT1080I cells (solid diamonds) were treated with TNFα (20 ng/ml) for varying times and surviving cells were quantified by crystal violet assay (Mehlen et al., EMBO J. 15:2695 (1996)). Data shown (FIG. 1A) are the mean of three independent experiments ±SD, and the percentage cell survival was defined as the relative number of TNF treated versus untreated cells.
HT1080V and HT1080I cells were preincubated with 10 ng/ml IL-1β (R & D Systems) for 5 hours (+Pre IL-1), or were left untreated. Cells were then treated with 10 μg/ml cycloheximide (CHX) and different concentrations of TNFα (0-50 ng/ml). Surviving cells were quantified by crystal violet assay (Mehlen et al., EMBO J. 15:2695 (1996)). […] Open squares represent HT1080V cells without IL-1 pretreatment; closed squares represent HT1080V cells pretreated with IL-1; circles represent HT1080I cells without IL-1 pretreatment; triangles represent HT1080I cells pretreated with IL-1.

The subject of assay [3] is HT1080V and HT1080I cells. As to the kind of experiment: Cell viability of HT1080V and HT1080I cells treated with cytotoxic agent (data not shown). The format is cell-based, human. The protocol: The present inventors' preliminary data additionally indicate that cell killing by vincristine is augmented by the inhibition of NF-κB (data not shown). HT1080V and HT1080I cells were treated with vincristine and cell viability was determined.

For assay [4], the system named is NF-κB. The experiment in a line: Electrophoretic mobility-shift assay (EMSA) of NF-κB nuclear translocation in HT1080V and HT1080I cells. Format: cell-based, human. The protocol:
HT1080 fibrosarcoma cells were co-transfected with the pCMV empty vector to produce control cells HT1080V; HT1080 cells co-transfected with the pCMV vector containing a cDNA encoding the super-repressor IκBα and with the pCEP4 vector for hygromycin B selection (400 μg/ml) provided HT1080I cells that expressed the super-repressor IκBα.
For orientation: A gel shift assay detects complexes by their altered migration in electrophoresis.

The test system of assay [5] is HT1080 fibrosarcoma cells. As to the kind of experiment: TNF-induced apoptosis detected by TUNEL staining. The format is cell-based, human. As to conditions: 50 ng/ml TNFα for 7 hr; HT1080V and HT1080I cells; FIG. 1B. The protocol:
TNF-induced apoptosis was detected by TUNEL staining (Graeber et al., Nature 379:88 (1996)). HT1080V (V) and HT1080I (I) cells were untreated (−TNF) or stimulated (+TNF) with 50 ng/ml TNFα for 7 hr and fixed with 4% paraformaldehyde. The staining was done according to the manufacturer's instructions (Boehringer Mannheim).

For the molecule `CCc1c2c(nc3ccc(OC(=O)N4CCC(N5CCCCC5)CC4)cc13)-c1cc3c(c(=O)n1C2)COC(=O)[C@]3(O)CC` [CPT-11, irinotecan], in the assay with NF-κB [1], the “Activation of NF-κB” value is recorded as “determined to activate NF-κB”.

As for `CC(C)C[C@@H](C=O)NC(=O)[C@H](CC(C)C)NC(=O)[C@H](CC(C)C)NC(=O)OCc1ccccc1` [MG132, Z-leu-leu-leu-H] (Cbz-Leu-Leu-Leu-aldehyde), the “Enhancement of TNF-induced killing” value in the assay with HT1080V cells is listed as “strongly enhanced TNF-induced killing of HT1080V cells”. Turning to `COc1cccc2c1C(=O)c1c(O)c3c(c(O)c1C2=O)C[C@@](O)(C(C)=O)C[C@@H]3O[C@H]1C[C@H](N)[C@H](O)[C@H](C)O1` [daunorubicin], the “Cell survival after daunorubicin, HT1080I versus control cells” value in assay [2] (0.1 to 2.0 μM for 24 hours, FIG. 3B) is “reduced in HT1080I cells”. With `CN[C@@H]1C[C@H]2O[C@@](C)([C@@H]1OC)n1c3ccccc3c3c4c(c5c6ccccc6n2c5c31)C(=O)NC4` [staurosporine], in assay [3] (HT1080I cells, data not shown), the “Apoptosis induced in IκBα expressing cells versus control” value is “not enhanced by the expression of IκBα”. In the assay with NF-κB [4] (HT1080V cells, 1 μM daunorubicin or 50 nM staurosporine), the “NF-κB nuclear translocation (EMSA) in control cells” value is “did not activate NF-κB; also recorded: only slight nuclear translocation of NF-κB was evident”.

Take `CC[C@]1(O)C[C@H]2CN(CCc3c([nH]c4ccccc34)[C@@](C(=O)OC)(c3cc4c(cc3OC)N(C=O)[C@H]3[C@@](O)(C(=O)OC)[C@H](OC(C)=O)[C@]5(CC)C=CCN6CC[C@]43[C@@H]65)C2)C1` [vincristine]: the “Cell killing in HT1080I versus HT1080V cells” value in assay [3] (preliminary data, not shown) is “Cell killing in HT1080I cells was enhanced compared to that in HT1080V cells”. Take “IL-1: an activator of NF-κB that does not initiate apoptosis”: in assay [2] (10 ng/ml IL-1β for 5 hours, then 10 μg/ml CHX and TNFα 0-50 ng/ml, FIG. 2A), the “Effect of pre-treatment on TNFα+CHX-induced apoptosis in HT1080V cells” value is on record as “inhibited TNFα+CHX-induced apoptosis in HT1080V cells”. Further, the “Effect of pre-treatment on CHX+TNF-induced killing in HT1080I cells” value in assay [2] (HT1080I cells, NF-κB activation blocked, FIG. 2A) was “no protective effect”. Take TNFα: the “Cell survival after TNFα, HT1080I versus HT1080V” value in assay [2] (TNFα 20 ng/ml, varying times, FIG. 1A) was “Cell survival was reduced in HT1080I cells compared to HT1080V controls”. Also, the “Apoptotic morphology by TUNEL staining” value in assay [5] was “only super-repressor IκBα expressing cells showed apoptotic morphology”.

B1: super-repressor IκBα: mutant IκBα with serine to alanine mutations at residues 32 and 36; binds NF-κB and inhibits nuclear translocation (protein, UniProt P25963 1-317, looked up, variant S32A S36A)
NF-kappa-B inhibitor alpha: MFQAAERPQEWAMEGPRDGLKKERLLDDRHDAGLDAMKDEEYEQMVKELQEIRLEPQEVPRGSEPWKQQLTEDGDSFLHLAIIHEEKALTMEVIRQVKGDLAFLNFQNNLQQTPLHLAVITNQPEIAEALLGAGCDPELRDFRGNTPLHLACEQGCLASVGVLTQSCTTPHLHSILKATNYNGHTCLHLASIHGYLGIVELLVSLGADVNAQEPCNGRTALHLAVDLQNPDLVSLLLKCGADVNRVTYQGYSPYQLTWGRPSTRIQQQLGQLTLENLQMLPESEDEESYDTESEFTEFTEDELPYDDCVFGGQRLTL
As for B1, the “Effect on TNF-stimulated NF-κB nuclear translocation (EMSA)” value with NF-κB [4] (expressed in HT1080I cells, data not shown) is listed as “efficiently blocked TNF-stimulated NF-κB nuclear translocation”.
